Data: US8163756B2 (priority 2004, dated 2012)

How the values were obtained:
Type in all cases: biochemical
B-Raf(V599E) kinase = B-Raf(V599E) kinase (Homo sapiens, UniProt P15056, V600E); experiment: B-Raf(V599E) kinase assay B1 (construct 1, MEK1 substrate, coupled spectrophotometric)
Procedure: The test compounds were incubated with the reaction mixtureat 30° C. for 2 h. […] The reaction rate was calculated using the […] time frame. […] IC50 values were calculated from a series of percent inhibition values determined at a range of inhibitor concentrations using software routines as implemented in the GraphPad Prism software package.

Abl kinase = biological target: T1, Abl kinase (Homo sapiens, UniProt P00519); experiment: Abl kinase assay A1 (pyruvate kinase/lactate dehydrogenase coupled, spectrophotometric); settings: Method A1; for IC50: read-out: Abl Data (IC50)
T1 sequence (P00519 229-512): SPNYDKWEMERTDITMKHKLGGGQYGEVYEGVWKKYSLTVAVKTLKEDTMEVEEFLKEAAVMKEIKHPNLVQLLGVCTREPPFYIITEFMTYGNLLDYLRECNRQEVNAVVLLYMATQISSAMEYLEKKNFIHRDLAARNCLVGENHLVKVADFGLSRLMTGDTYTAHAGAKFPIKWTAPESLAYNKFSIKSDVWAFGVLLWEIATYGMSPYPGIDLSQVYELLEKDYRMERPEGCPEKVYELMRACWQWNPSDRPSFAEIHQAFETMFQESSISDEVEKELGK
Procedure: IC50 values were calculated from a series of percent inhibition values determined at a range of inhibitor concentrations using software routines as implemented in the GraphPad Prism software package.

[1] = biological target: phosphorylated p-38-alpha kinase (Homo sapiens, UniProt Q16539); experiment: P-38 alpha kinase assay P1 (coupled spectrophotometric, 2 h pre-incubation); settings: method P1 (2 h pre-incubation); read-out: P-38 Data
phosphorylated p-38-alpha kinase, sequence (Q16539 1-360 isoform Q16539-2): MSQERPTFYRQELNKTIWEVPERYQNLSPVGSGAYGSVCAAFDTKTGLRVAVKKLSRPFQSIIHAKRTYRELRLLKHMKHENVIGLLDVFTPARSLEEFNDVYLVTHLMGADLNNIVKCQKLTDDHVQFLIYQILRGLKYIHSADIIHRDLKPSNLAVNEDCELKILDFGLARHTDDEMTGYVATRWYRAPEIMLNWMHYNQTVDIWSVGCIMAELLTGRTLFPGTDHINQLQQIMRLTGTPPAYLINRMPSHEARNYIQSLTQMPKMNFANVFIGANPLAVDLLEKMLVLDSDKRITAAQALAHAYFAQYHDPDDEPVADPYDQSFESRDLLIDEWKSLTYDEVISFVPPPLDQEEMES

B-Raf(V599E) kinase, sequence (P15056 with tags, fused parts or gaps V600E): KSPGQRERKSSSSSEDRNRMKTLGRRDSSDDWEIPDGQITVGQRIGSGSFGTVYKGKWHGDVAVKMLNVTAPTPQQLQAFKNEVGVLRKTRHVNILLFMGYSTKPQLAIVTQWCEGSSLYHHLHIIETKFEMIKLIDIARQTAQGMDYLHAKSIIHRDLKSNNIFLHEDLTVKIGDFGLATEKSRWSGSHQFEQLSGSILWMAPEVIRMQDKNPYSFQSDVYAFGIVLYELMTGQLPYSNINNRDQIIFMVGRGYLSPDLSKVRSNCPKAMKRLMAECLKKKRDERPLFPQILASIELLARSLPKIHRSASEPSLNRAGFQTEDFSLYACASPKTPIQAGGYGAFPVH

Compound	IC50 (B-Raf(V599E) kinase) [nM]	IC50 (Abl kinase) [nM]	inhibition at 10 µM (Abl kinase; @ 10 μM, read-out: Abl Data (percent inhibition)) [%]	IC50 [1] [nM]
CC(C)(C)c1cc(NC(=O)Nc2ccc3c(c2)OCO3)n(-c2cccc(C#N)c2)n1 [Example 6, 1-(benzo[d][1,3]dioxol-5-yl)-3-(3-t-butyl-1-(3-cyanophenyl)-1H-pyrazol-5-yl)urea]	180	3000		
COc1cccc(NC(=O)Nc2cc(C(C)(C)C)nn2-c2cccc(C#N)c2)c1 [Example 10]		4300		
CC(C)(C)c1cc(NC(=O)Nc2cccc(C(F)(F)F)c2)n(-c2cccc(C#N)c2)n1 [Example 11]		5100		
COc1cccc(-n2nc(C(C)(C)C)cc2NC(=O)Nc2cc(Cl)cc(Cl)c2)c1 [Example 14, 1-(3-t-butyl-1-(3-methoxyphenyl)-1H-pyrazol-5-yl)-3-(3,5-dichlorophenyl)urea]	70	2400		
COc1cccc(-n2nc(C(C)(C)C)cc2NC(=O)Nc2cccc(C#N)c2)c1 [Example 17, 1-(3-t-butyl-1-(3-methoxyphenyl)-1H-pyrazol-5-yl)-3-(3-cyanophenyl)urea]	89	370		
CC(C)(C)c1cc(NC(=O)Nc2cccc(Cl)c2Cl)n(-c2cccc(CC(=O)NC[C@H](O)CO)c2)n1 [Example 36, 1-(3-t-butyl-1-(3-(2-((S)-2,3-dihydroxypropylamino)-2-oxoethyl)phenyl)-1H-pyrazol-5-yl)-3-(2,3-dichloro-phenyl)urea]		720		
CC(C)(C)c1cc(NC(=O)Nc2cccc(Cl)c2Cl)n(-c2cccc(CC(=O)NCCO)c2)n1 [Example 37, 1-(3-t-butyl-{1-[3-(2-hydroxyethylamino)-2-oxo-thyl]-phenyl}-1H-pyrazol-5-yl)-3-(2,3-dichlorophenyl)-urea]	5.7	1400		
CC(C)(C)c1cc(NC(=O)Nc2cccc(Br)c2)n(-c2cccc(CN)c2)n1 [Example 41, 1-(1-[3-(aminomethyl)phenyl]-3-t-butyl-1H-pyrazol-5-yl)-3-(3-bromophenyl)urea]	89	3700		
CCOC(=O)c1cc(-n2nc(C(C)(C)C)cc2NC(=O)Nc2cccc(Cl)c2Cl)cc2ccccc12 [Example 58, 3-{3-t-butyl-5-[3-(2,3-dichlorophenyl)ureido]-pyrazol-1-yl}naphthalene-1-carboxylic acid ethyl ester]		4700		
CC(C)(C)c1cc(NC(=O)Nc2cc(F)cc(F)c2)n(-c2cc(CO)c3ccccc3c2)n1 [Example 59, 1-(3-t-butyl-1-(4-(hydroxymethyl)naphthalen-2-yl)-1H-pyrazol-5-yl)-3-(3,5-difluorophenyl)urea]	8.7	79		
CC(C)(C)c1cc(NC(=O)Nc2ccc(F)c(F)c2F)n(-c2cc(CO)c3ccccc3c2)n1 [Example 62, 1-(3-t-butyl-1-(4-(hydroxylmethyl)naphthalen-2-yl)-1H-pyrazol-5-yl)-3-(2,3,4-trifluorophenyl)urea]	3.2	110		
CC(C)(C)c1cc(NC(=O)Nc2ccc(F)cc2F)n(-c2cc(CO)c3ccccc3c2)n1 [Example 63, 1-(3-t-butyl-1-(4-(hydroxylmethyl)naphthalen-2-yl)-1H-pyrazol-5-yl)-3-(2,4-difluorophenyl)urea]	4	300		
CC(C)(C)c1cc(NC(=O)Nc2cc(F)c(F)cc2F)n(-c2cc(CO)c3ccccc3c2)n1 [Example 64, 1-(3-t-butyl-1-(4-(hydroxymethyl)naphthalen-2-yl)-1H-pyrazol-5-yl)-3-(2,4,5-trifluorophenyl)urea]	3.3	63		
CC(C)(C)c1cc(NC(=O)Nc2cc(F)c(F)c(F)c2)n(-c2cc(CO)c3ccccc3c2)n1 [Example 66, 1-(3-t-butyl-1-(4-(hydroxymethyl)naphthalen-2-yl)-1H-pyrazol-5-yl)-3-(3,4,5-trifluorophenyl)urea]	8.5	71		
CC(C)(C)c1cc(NC(=O)Nc2cc(F)cc(F)c2F)n(-c2cc(CN)c3ccccc3c2)n1 [Example 70, 1-(1-(4-(aminomethyl)naphthalen-2-yl)-3-t-butyl-1H-pyrazol-5-yl)-3-(2,3,5-trifluorophenyl)urea]	5	50		
CC(C)(C)c1cc(NC(=O)Nc2cc(F)c(F)cc2F)n(-c2cc(CN)c3ccccc3c2)n1 [Example 71, 1-(1-(4-(aminomethyl)naphthalen-2-yl)-3-t-butyl-1H-pyrazol-5-yl)-3-(2,4,5-trifluorophenyl)urea]	4.1	90		
CCOC(=O)Cc1cc(-n2nc(C(C)(C)C)cc2NC(=O)Nc2cccc(Cl)c2Cl)cc2ccccc12 [Example 76]	11		31	

Compound	IC50 (B-Raf(V599E) kinase) [nM]	IC50 (Abl kinase) [nM]	inhibition at 10 µM (Abl kinase; @ 10 μM, read-out: Abl Data (percent inhibition)) [%]	IC50 [1] [nM]
CC(C)(C)c1cc(NC(=O)Nc2cccc(Cl)c2Cl)n(-c2cc(CC(=O)O)c3ccccc3c2)n1 [Example 77, 2-(3-(3-t-butyl-5-(3-(2,3-dichlorophenyl)-ureido)-1H-pyrazol-1-yl)naphthalen-1-yl)acetic acid]	3.9	260		
CC(C)(C)c1cc(NC(=O)Nc2ccc(C#N)cc2)n(-c2cc(CC(N)=O)c3ccccc3c2)n1 [Example 79, 1-(1-(4-(2-amino-2-oxoethyl)naphthalen-2-yl)-3-t-butyl-1H-pyrazol-5-yl)-3-(4-cyanophenyl)urea]		180		
CC(C)(C)c1cc(NC(=O)Nc2cc(F)ccc2F)n(-c2cc(CC(N)=O)c3ccccc3c2)n1 [Example 87, 1-(1-(4-(2-amino-2-oxoethyl)naphthalen-2-yl)-3-t-butyl-1H-pyrazol-5-yl)-3-(2,5-difluorophenyl)urea]		73		
CC(C)(C)c1cc(NC(=O)NC2CCCCC2)n(-c2cc(CC(N)=O)c3ccccc3c2)n1 [Example 91, 1-(1-(4-(2-amino-2-oxoethyl)naphthalen-2-yl)-3-t-butyl-1H-pyrazol-5-yl)-3-cyclohexylurea]	20			350
CC(C)(C)c1cc(NC(=O)Nc2cc(F)c(F)c(F)c2)n(-c2cc(CC(=O)NCC(O)CO)c3ccccc3c2)n1 (stereo not shown) [Example 98]		34		
CC(C)(C)c1cc(NC(=O)Nc2cc(F)ccc2F)n(-c2cc(CC(=O)NC(CO)CO)c3ccccc3c2)n1 [Example 99, 1-(3-t-butyl-1-(4-(2-(1,3-dihydroxypropan-2-ylamino)-2-oxoethyl)naphthalen-2-yl)-1H-pyrazol-5-yl)-3-(2,5-difluorophenyl)urea]		38		
CC(C)(C)c1cc(NC(=O)Nc2cccc(C#N)c2)n(-c2ccc3c(c2)CNCC3)n1 [Example 125, 1-(3-t-butyl-1-(1,2,3,4-tetrahydroisoquinolin-7-yl)-1H-pyrazol-5-yl)-3-(3-cyanophenyl)urea]		180		
CC(C)(C)c1cc(NC(=O)Nc2cccc(C#N)c2)n(-c2ccc3c(c2)CCNCC3)n1 [Example 167, 1-(3-t-butyl-1-(2,3,4,5-tetrahydro-1H-benzo[d]azepin-7-yl)-1H-pyrazol-5-yl)-3-(3-cyanophenyl)urea]		310		
CC(C)(C)c1ncc(NC(=O)Nc2cccc(Cl)c2Cl)c(-c2ccccc2)n1 [Example 279, 1-(2-t-butyl-4-phenylpyrimidin-5-yl)-3-(2,3-dichlorophenyl)urea]	697			1050
CC(C)(C)c1ncc(NC(=O)Nc2cccc(Oc3cccnc3)c2)c(-c2ccccc2)n1 [Example 281, 1-(2-t-butyl-4-phenylpyrimidin-5-yl)-3-(3-(pyridin-3-yloxy)phenyl)urea]	369			5800
CC(C)(C)c1cc(NC(=O)Nc2ccccc2)n(-c2cc(CC(=O)O)c3ccccc3c2)n1 [Example 301, {3-[3-t-butyl-5-(3-phenylureido)pyrazol-1-yl]naphthalen-1-yl}acetic acid]	10			160
CC(C)(C)c1cc(NC(=O)Nc2ccc(F)c(F)c2F)n(-c2cccc(CC(=O)O)c2)n1 [Example 356, 2-(3-(3-t-butyl-5-(3-(2,3,4-trifluorophenyl)-ureido)-1H-pyrazol-1-yl)phenyl)acetic acid]	14			72
CC(C)(C)c1cc(NC(=O)Nc2cccc(Cl)c2Cl)n(-c2cccc(CC(=O)NCC(O)CO)c2)n1 (stereo not shown) [Example 440, 1-(3-t-butyl-1-(3-(2-(2,3-dihydroxypropylamino)-2-oxoethyl)phenyl)-1H-pyrazol-5-yl)-3-(2,3-dichlorophenyl)urea]	4.1			7
CO[C@@H]1CCN(C(=O)Cc2cccc(-n3nc(C(C)(C)C)cc3NC(=O)Nc3cccc(Cl)c3Cl)c2)C1 [Example 444, 1-(3-t-butyl-1-(3-(2-((R)-3-methoxypyrrolidin-1-yl)-2-oxoethyl)phenyl)-1H-pyrazol-5-yl)-3-(2,3-dichlorophenyl)urea]	20			63
O=C(Cc1ccc(-n2nc(-c3cccs3)cc2NC(=O)N[C@H]2CCc3ccccc32)cc1)NCCO [Example 490, 1-((S)-2,3-dihydro-1H-inden-1-yl)-3-(1-(4-(2-(2-hydroxyethylamino)-2-oxoethyl)phenyl)-3-(thiophen-2-yl)-1H-pyrazol-5-yl)urea]				53
CC(C)(C)c1cc(NC(=O)Nc2cccc(Cl)c2Cl)n(-c2ccc(CC(=O)NCC(O)CO)cc2)n1 (stereo not shown) [Example 493]	11			4
